Values quoted from earlier work, collected in patent publication US20230218659A1, “Selenium-Based Compositions and Therapeutic Methods” (Hess Pharmaceuticals, Inc, priority 2020, published 2023).

Details: 200 µg/day selenium with or without 400 IU/day vitamin E; 35,533 men aged 50 years or older; after 5.5 years

## [Se] [selenium]
  association between prostate cancer risk and supplementation: no association
